# Laboratory results: patent US8802597B2, “Herbicidal pyrimidines” (E I du Pont de Nemours and Company, priority 2003, dated 2014)
# How the values were obtained:
# Type in all cases: in vivo
# [1] = test system: barnyardgrass (Echinochloa crus-galli); test: Test A pre/postemergence
# How it was run: (§1)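 Soil: loam blended with sand. Formulation: non-phytotoxic solvent mixture with surfactant. Timing: preemergence soil spray plus concurrent postemergence spray (plants 2–10 cm, 1–2 leaves). Readout: visual injury versus untreated controls at ~10 days, 0–100.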
# [2] = test system: morningglory (Ipomoea spp.); test: Test A pre/postemergence
# How it was run: as §1
# [3] = test system: giant foxtail (Setaria faberi); test: Test A pre/postemergence
# How it was run: as §1
# [4] = test system: crabgrass (Digitaria sanguinalis); test: Test A pre/postemergence
# How it was run: as §1
# [5] = test system: velvetleaf (Abutilon theophrasti); test: Test A pre/postemergence
# How it was run: as §1
# [6] = test system: redroot pigweed (Amaranthus retroflexus); test: Test A pre/postemergence
# How it was run: as §1
# [7] = test system: barnyardgrass (Echinochloa crus-galli); test: Test E flooded paddy water application; settings: Flood, 21 days, scale 0 to 100 (0 no effect, 100 complete control)
# From the text: (§2) Three plastic pots (ca. 16-cm diameter) per rate were partially filled with sterilized Tama silt loam soil comprising a 35:50:15 ratio of sand, silt and clay and 2.6% organic matter. Separate plantings for each of the three pots were as follows. Seeds from the U.S. of ducksalad (Heteranthera limosa), smallflower umbrella sedge (Cyperus difformis) and purple redstem (Ammannia coccinea), were planted into one 16-cm pot for each rate. Seeds from the U.S. of rice flatsedge (Cyperus iria), bearded (brdd.) sprangletop (Leptochloa fusca ssp. fascicularis), one stand of 9 or 10 water seeded rice seedlings (Oryza sativa cv. ‘Japonica-M202’), and one stand of 6 transplanted rice seedlings (Oryza sativa cv. ‘Japonica-M202’) were planted into one 16-cm pot for each rate. Seeds from the U.S. of barnyardgrass (Echinochloa crus-galli), late watergrass (Echinochloa oryzicola), early watergrass (Echinochloa oryzoides) and junglerice (Echinochloa colona) were planted into one 16-cm pot for each rate. Plantings were sequential so that crop and weed species were at the 2.0 to 2.5-leaf stage at time of treatment.
# (§3) Potted plants were grown in a greenhouse with day/night temperature settings of 29.5/26.7° C., and supplemental balanced lighting was provided to maintain a 16-hour photoperiod. Test pots were maintained in the greenhouse until test completion.
# (§4) At time of treatment, test pots were flooded to 3 cm above the soil surface, treated by application of test compounds directly to the paddy water, and then maintained at that water depth for the duration of the test. Effects of treatments on rice and weeds were visually evaluated by comparison to untreated controls after 21 days. Plant response ratings, summarized in Table E, are based on a scale of 0 to 100 where 0 is no effect and 100 is complete control. A dash (-) response means no test result.
# [8] = test system: smallflower umbrella sedge (Cyperus difformis); test: Test E flooded paddy water application; settings: Flood, 21 days, scale 0 to 100 (0 no effect, 100 complete control)
# From the text: as §2, §3, §4
# [9] = test system: rice flatsedge (Cyperus iria); test: Test E flooded paddy water application; settings: Flood, 21 days, scale 0 to 100 (0 no effect, 100 complete control)
# From the text: as §2, §3, §4
# [10] = test system: early watergrass (Echinochloa oryzoides); test: Test E flooded paddy water application; settings: Flood, 21 days, scale 0 to 100 (0 no effect, 100 complete control)
# From the text: as §2, §3, §4
# [11] = test system: late watergrass (Echinochloa oryzicola); test: Test E flooded paddy water application; settings: Flood, 21 days, scale 0 to 100 (0 no effect, 100 complete control)
# From the text: as §2, §3, §4
# [12] = test system: water seeded rice seedlings (Oryza sativa cv. ‘Japonica-M202’); test: Test E flooded paddy water application; settings: Flood, 21 days, scale 0 to 100 (0 no effect, 100 complete control)
# From the text: as §2, §3, §4
# [13] = test system: bearded (brdd.) sprangletop (Leptochloa fusca ssp. fascicularis); test: Test E flooded paddy water application; settings: Flood, 21 days, scale 0 to 100 (0 no effect, 100 complete control)
# From the text: as §2, §3, §4
# [14] = test system: junglerice (Echinochloa colona); test: Test E flooded paddy water application; settings: Flood, 21 days, scale 0 to 100 (0 no effect, 100 complete control)
# From the text: as §2, §3, §4
# [15] = test system: purple redstem (Ammannia coccinea); test: Test E flooded paddy water application; settings: Flood, 21 days, scale 0 to 100 (0 no effect, 100 complete control)
# From the text: as §2, §3, §4
# [16] = test system: ducksalad (Heteranthera limosa); test: Test E flooded paddy water application; settings: Flood, 21 days, scale 0 to 100 (0 no effect, 100 complete control)
# From the text: as §2, §3, §4
# [17] = test system: transplanted rice seedlings (Oryza sativa cv. ‘Japonica-M202’); test: Test E flooded paddy water application; settings: Flood, 21 days, scale 0 to 100 (0 no effect, 100 complete control)
# From the text: as §2, §3, §4
# [18] = Postemergence, 125 g ai/ha, 0 to 100 scale (0 no effect, 100 complete control)
# [19] = Postemergence, 500 g ai/ha, 0 to 100 scale (0 no effect, 100 complete control)
# [20] = Preemergence, 125 g ai/ha, 0 to 100 scale where 0 is no effect and 100 is complete control, approximately ten days
# [21] = Preemergence, 500 g ai/ha, 0 to 100 scale where 0 is no effect and 100 is complete control, approximately ten days
compound,measurement,setting,value
CCOC(=O)c1nc(-c2ccc(C)c(C)c2)nc(N)c1Cl [Compound 71],"Plant response rating, Barnyardgrass",[1]; [18],0
same,"Plant response rating, Barnyardgrass",[1]; [19],0
same,"Plant response rating, Barnyardgrass",[1]; [20],0
same,"Plant response rating, Barnyardgrass",[1]; [21],0
same,"Plant response rating, Morningglory",[2]; [18],0
same,"Plant response rating, Morningglory",[2]; [19],0
same,"Plant response rating, Morningglory",[2]; [20],0
same,"Plant response rating, Morningglory",[2]; [21],0
same,"Plant response rating, Foxtail, Giant",[3]; [18],0
same,"Plant response rating, Foxtail, Giant",[3]; [19],0
same,"Plant response rating, Foxtail, Giant",[3]; [20],0
same,"Plant response rating, Foxtail, Giant",[3]; [21],0
same,"Plant response rating, Crabgrass",[4]; [18],0
same,"Plant response rating, Crabgrass",[4]; [19],5
same,"Plant response rating, Crabgrass",[4]; [20],0
same,"Plant response rating, Crabgrass",[4]; [21],0
same,"Plant response rating, Velvetleaf",[5]; [18],40
same,"Plant response rating, Velvetleaf",[5]; [19],55
same,"Plant response rating, Velvetleaf",[5]; [20],30
same,"Plant response rating, Velvetleaf",[5]; [21],50
same,"Plant response rating, Pigweed",[6]; [18],5
same,"Plant response rating, Pigweed",[6]; [19],30
same,"Plant response rating, Pigweed",[6]; [20],0
same,"Plant response rating, Pigweed",[6]; [21],15
same,Barnyardgrass plant response rating,[7]; 32 g ai/ha,0
same,Barnyardgrass plant response rating,[7]; 64 g ai/ha,0
same,Barnyardgrass plant response rating,[7]; 125 g ai/ha,0
same,Barnyardgrass plant response rating,[7]; 250 g ai/ha,60
same,"Plant response rating, Barnyardgrass",[7]; 16 g ai/ha,0
same,"Sedge, Umbrella plant response rating",[8]; 32 g ai/ha,0
same,"Sedge, Umbrella plant response rating",[8]; 64 g ai/ha,0
same,"Sedge, Umbrella plant response rating",[8]; 125 g ai/ha,30
same,"Sedge, Umbrella plant response rating",[8]; 250 g ai/ha,70
same,"Plant response rating, Sedge, Umbrella",[8]; 16 g ai/ha,0
same,"Flatsedge, Rice plant response rating",[9]; 32 g ai/ha,0
same,"Flatsedge, Rice plant response rating",[9]; 64 g ai/ha,0
same,"Flatsedge, Rice plant response rating",[9]; 125 g ai/ha,0
same,"Flatsedge, Rice plant response rating",[9]; 250 g ai/ha,0
same,"Plant response rating, Flatsedge, Rice",[9]; 16 g ai/ha,0
same,"Watergrass, Early plant response rating",[10]; 32 g ai/ha,0
same,"Watergrass, Early plant response rating",[10]; 64 g ai/ha,0
same,"Watergrass, Early plant response rating",[10]; 125 g ai/ha,0
same,"Watergrass, Early plant response rating",[10]; 250 g ai/ha,0
same,"Plant response rating, Watergrass, Early",[10]; 16 g ai/ha,0
same,"Watergrass, Late plant response rating",[11]; 32 g ai/ha,0
same,"Watergrass, Late plant response rating",[11]; 64 g ai/ha,0
same,"Watergrass, Late plant response rating",[11]; 125 g ai/ha,0
same,"Watergrass, Late plant response rating",[11]; 250 g ai/ha,0
same,"Plant response rating, Watergrass, Late",[11]; 16 g ai/ha,0
same,"Rice, Water Seeded plant response rating",[12]; 32 g ai/ha,0
same,"Rice, Water Seeded plant response rating",[12]; 64 g ai/ha,0
same,"Rice, Water Seeded plant response rating",[12]; 125 g ai/ha,0
same,"Rice, Water Seeded plant response rating",[12]; 250 g ai/ha,0
same,"Plant response rating, Rice, Water Seeded",[12]; 16 g ai/ha,0
same,"Sprangletop, Brdd. plant response rating",[13]; 32 g ai/ha,0
same,"Sprangletop, Brdd. plant response rating",[13]; 125 g ai/ha,0
same,"Sprangletop, Brdd. plant response rating",[13]; 250 g ai/ha,60
same,Junglerice plant response rating,[14]; 32 g ai/ha,0
same,Junglerice plant response rating,[14]; 64 g ai/ha,0
same,Junglerice plant response rating,[14]; 125 g ai/ha,0
same,Junglerice plant response rating,[14]; 250 g ai/ha,45
same,"Plant response rating, Junglerice",[14]; 16 g ai/ha,0
same,Redstem plant response rating,[15]; 32 g ai/ha,0
same,Redstem plant response rating,[15]; 64 g ai/ha,0
same,Redstem plant response rating,[15]; 125 g ai/ha,0
same,Redstem plant response rating,[15]; 250 g ai/ha,30
same,"Plant response rating, Redstem",[15]; 16 g ai/ha,0
same,Ducksalad plant response rating,[16]; 32 g ai/ha,100
same,Ducksalad plant response rating,[16]; 64 g ai/ha,100
same,Ducksalad plant response rating,[16]; 125 g ai/ha,100
same,Ducksalad plant response rating,[16]; 250 g ai/ha,100
same,"Plant response rating, Ducksalad",[16]; 16 g ai/ha,100
same,"Rice, Transplanted plant response rating",[17]; 32 g ai/ha,0
same,"Rice, Transplanted plant response rating",[17]; 64 g ai/ha,0
same,"Rice, Transplanted plant response rating",[17]; 125 g ai/ha,0
same,"Rice, Transplanted plant response rating",[17]; 250 g ai/ha,0
same,"Plant response rating, Rice, Transplanted",[17]; 16 g ai/ha,0
